Here are results for 24 compounds from patent US20240092819A1, “NOVEL LIGANDS FOR ASIALOGLYCOPROTEIN RECEPTOR” (SANOFI, priority 2020, published 2024).

In general, IC50 refers to the concentration at which inhibition is half-maximal. A higher IC50 goes with lower potency.

For the test, the target named is ASGPR (Rattus norvegicus (Rat), UniProt P02706+P08290). The experiment in a line: Fluorescent polarization (FP) ASGPR binding assay. The settings on record: competition with 1 nM Cy5-labeled trimeric GalNAc tracer, Wistar rat liver membrane. The source says: Fluorescent Polarization (FP) ASGPR Binding Assay to Determine the Binding Affinities of ASGPR-Targeted Small Molecules:
The technique of fluorescence polarization (FP) is based on the observation that when a fluorescently labeled molecule is excited by polarized light, it emits light with a degree of polarization that is inversely proportional to the rate of molecular rotation. This property of fluorescence can be used to measure the interaction of a small labeled ligand with a larger protein and provides a basis for direct and competition binding assays.
The assay was performed in 384-well microplates (GREINER bio-one, 781076). Membrane prepared from Wistar rat liver was used as a source of ASGPR and Cy5 fluorophore-labeled trimeric GauNAc-tool compound was used as a tracer.
In the FP binding experiments, 15 μltest sample was mixed with 15 μl of […] liver membrane. After 10 minutes incubation at room temperature, 10 μl of the Cy5-labeled trimeric GalNAc-tool compound (final concentration: 1 nM) were added. The FP signals were recorded after 30 minutes incubation at room temperature at Ex. 612 nm/Em. 670 with PheraStar FXS (BMG Biotech). The optimal FP buffer was 50 mM Tris, pH 7.4; 3 mM CaCl2; 0.04% Triton X100; 0,05% BSA.

Structures can show the parent of a compound that is named as a salt.

Chain of ASGPR (P02706 whole entry): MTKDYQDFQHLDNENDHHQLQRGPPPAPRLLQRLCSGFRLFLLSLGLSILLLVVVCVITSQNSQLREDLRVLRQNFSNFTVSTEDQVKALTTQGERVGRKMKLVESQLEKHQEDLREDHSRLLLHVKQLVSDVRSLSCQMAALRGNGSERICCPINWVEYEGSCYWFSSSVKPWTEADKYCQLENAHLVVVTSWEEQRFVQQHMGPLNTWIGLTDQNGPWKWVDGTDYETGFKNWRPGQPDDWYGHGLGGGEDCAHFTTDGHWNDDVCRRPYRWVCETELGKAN
Chain of ASGPR (P08290 whole entry): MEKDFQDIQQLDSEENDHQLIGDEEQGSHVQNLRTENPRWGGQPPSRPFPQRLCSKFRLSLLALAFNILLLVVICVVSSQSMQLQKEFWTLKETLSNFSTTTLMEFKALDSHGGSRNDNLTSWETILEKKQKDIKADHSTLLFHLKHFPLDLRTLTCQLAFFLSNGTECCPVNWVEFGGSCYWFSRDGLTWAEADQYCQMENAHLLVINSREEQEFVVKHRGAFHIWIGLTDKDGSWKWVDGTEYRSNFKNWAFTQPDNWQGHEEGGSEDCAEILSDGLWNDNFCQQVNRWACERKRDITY

As for `CCC[C@@H]1[C@H](O)[C@H](O)[C@@H](NC(C)=O)CN1C(=O)CCCCC(=O)O` [Compound 148, 6-[(2R,3S,4R,5S)-5-acetamido-3,4-dihydroxy-2-propyl-1-piperidyl]-6-oxo-hexanoic acid], the IC50 (Table K, monomeric compounds) was 370 µM.
The compound `CC(C)C(=O)Nc1nc2c(ncn2[C@@H]2O[C@H](CO)[C@@H](O)[C@H]2O)c(=O)[nH]1` [Compound 219, N-Isobuturylguanosine] had a half-maximal inhibitory concentration (IC50) (Table K, monomeric compounds) of 129 µM.
Compound `CC(=O)NC1CN(C(=O)CCCC(=O)NCCCNC(=O)CCOCC(COCCC(=O)NCCCNC(=O)CCCC(=O)N2C[C@H](NC(C)=O)[C@@H](O)[C@@H](O)C2)(COCCC(=O)NCCCNC(=O)CCCC(=O)N2C[C@H](NC(C)=O)[C@@H](O)[C@@H](O)C2)NC(=O)CCCCCCCCCCCOCc2ccccc2)C[C@H](O)[C@@H]1O` (stereo partly drawn) [Compound 268, N,N′,N′-((3S,3′S,3″S,4R,4′R,4″R,5S,5′S,5″S)-(16-(12-(benzyloxy)dodecanamido)-5,11,21,27-tetraoxo-16-((3-oxo-3-((3-(5-oxopentanamido)propyl)amino)propoxy)methyl)-14,18-dioxa-6,10,22,26-tetraazahentriacontanedioyl)tris(4,5-dihydroxy-piperidine-1,3-diyl))triacetamide] came in with an IC50 (Table M, trimeric compounds) of 0.335 µM.
In turn, `CC(=O)N[C@H]1CN(C(=O)CCCCCOCc2ccccc2)C[C@H](O)[C@@H]1O` [Compound 128, N-[(3S,4R,5S)-1-(6-benzyloxyhexanoyl)-4,5-dihydroxy-3-piperidyl]acetamide] came in with an IC50 (Table K, monomeric compounds) of 451 µM.
`CC(=O)N[C@H]1CN[C@H](COC(=O)CCCCC(=O)OCc2ccccc2)[C@H](O)[C@@H]1O` [Compound 161, 06-[[(2R,3S,4R,5S)-5-acetamido-3,4-dihydroxy-2-piperidyl]methyl] 01-benzyl hexanedioate]: the IC50 (Table K, monomeric compounds) was 161 µM.
Same read-out and setting: for `Nc1nc2c(ncn2[C@@H]2O[C@H](CO)[C@@H](O)[C@H]2O)c(=O)[nH]1` [Compound 194, 2-amino-9-[(2R,3R,4S,5R)-3,4-dihydroxy-5-(hydroxymethyl)-tetrahydrofuran-2-yl]-1H-purin-6-one] the value was 513 µM.
For the setting “Table L, targeted nucleosides”, `Cc1cn([C@H]2CN(CCOCCOCCOP(=O)(O)OC[C@H]3O[C@@H](n4cnc5c(=O)[nH]c(N)nc54)[C@H](O)[C@@H]3O)CC(CO)(CO)O2)c(=O)[nH]c1=O` [Compound 258, [(2R,3S,4R,5R)-5-(2-Amino-6-oxo-1H-purin-9-yl)-3,4-di-hydroxy-tetrahydrofuran-2-yl]methyl 2-[2-[2-[(6R)-2,2-bis(hydroxymethyl)-6-(5-methyl-2,4-dioxo-pyrimidin-1-yl)morpholin-4-yl]ethoxy]ethoxy]ethyl hydrogen phosphate-sodium salt] gave an IC50 of 1850 µM.
Same read-out and setting: then `Cc1cn([C@H]2CN(CCOCCOCCOC[C@H]3O[C@@H](n4cnc5c(=O)[nH]c(N)nc54)[C@H](O)[C@@H]3O)CC(CO)(CO)O2)c(=O)[nH]c1=O` [Compound 254, 1-[(2R)-4-[2-[2-[2-[[(2R,3S,4R,5R)-5-(2-Amino-6-oxo-1H-purin-9-yl)-3,4-dihydroxy-tetrahydrofuran-2-yl]methoxy]ethoxy]ethoxy]ethyl]-6,6-bis-(hydroxymethyl)-morpholin-2-yl]-5-methyl-pyrimidine-2,4-dione], with 1240 µM.
For `CC(=O)N[C@H]1CN(CCCCCCOCc2ccccc2)[C@H](CO)[C@H](O)[C@@H]1O` [Compound 180, N-[(3S,4R,5S,6R)-1-(6-benzyloxyhexyl)-4,5-dihydroxy-6-(hydroxymethyl)-3-piperidyl]acetamide], the 50% inhibitory concentration (IC50) (Table K, monomeric compounds) stood at 628 µM.
On the same count and under the same terms, for `CN(C)c1nc2c(ncn2[C@@H]2O[C@H](CO)[C@@H](O)[C@H]2O)c(=O)[nH]1` [Compound 198, 9-[(2R,3R,4S,5R)-3,4-dihydroxy-5-(hydroxymethyl)-tetrahydro-furan-2-yl]-2-(dimethylamino)-1H-purin-6-one] the value was 1940 µM; for `O=C1[C@H](O)[C@H](O)[C@@H](n2cc(COc3ccccc3)nn2)CN1CCCCCCOCc1ccccc1` [Compound 140, (3R,4R,5S)-1-(6-benzyloxyhexyl)-3,4-dihydroxy-5-[4-(phenoxymethyl)triazol-1-yl]piperidin-2-one], 658 µM; for `CC(=O)N[C@H]1CN(C(=O)OCc2ccccc2)C[C@H](O)[C@@H]1O` [Compound 121, benzyl (3S,4R,5S)-3-acetamido-4,5-dihydroxy-piperidine-1-carboxylate], 563 µM.
Same read-out and setting: for `CN(C)C(=O)C[C@H]1O[C@@H](n2cnc3c(=O)[nH]c(N)nc32)[C@H](O)[C@@H]1O` [Compound 72, 2-[(2R,3S,4R,5R)-5-(2-Amino-6-oxo-1H-purin-9-yl)-3,4-dihydroxytetrahydrofuran-2-yl]-N,N-dimethyl-acetamide] the value was 89 µM; for `CC(=O)N[C@H]1CN(C(=O)CCCCC(=O)OCc2ccccc2)[C@H](COC(C)(C)C)[C@H](O)[C@@H]1O` [Compound 160, benzyl 6-[(2R,3S,4R,5S)-5-acetamido-2-(tert-butoxymethyl)-3,4-dihydroxy-1-piperidyl]-6-oxo-hexanoate], 1050 µM.
Same read-out and setting: then `CNC(=O)C[C@H]1O[C@@H](n2cnc3c(=O)[nH]c(N)nc32)[C@H](O)[C@@H]1O` [Compound 71, 2-[(2R,3S,4R,5R)-5-(2-Amino-6-oxo-1H-purin-9-yl)-3,4-dihydroxy-tetrahydrofuran-2-yl]-N-methyl-acetamide], with 605 µM; and `CC(=O)N[C@H]1C(O)O[C@H](CO)[C@H](O)[C@@H]1O` (stereo partly drawn) [Compound 193, N-[(3R,4R,5R,6R)-2,4,5-trihydroxy-6-(hydroxymethyl)-tetrahydropyran-3-yl]acetamide, reference compound], with 545 µM.
The compound `CC(=O)N[C@H]1CN(C(=O)CCCCC(=O)OCc2ccccc2)C[C@H](O)[C@@H]1O` [Compound 112, benzyl 6-[(3S,4R,5S)-3-acetamido-4,5-dihydroxy-1-piperidyl]-6-oxo-hexanoate] yielded an IC50 (Table K, monomeric compounds) of 344 µM. This IC50 is about 1.6-fold lower than that of the compound before.
Still for that read-out and setting: then `CCC[C@@H]1[C@H](O)[C@H](O)[C@@H](NC(C)=O)CN1C(=O)CCCCC(=O)OCc1ccccc1` [Compound 146, benzyl 6-[(2R,3S,4R,5S)-5-acetamido-3,4-dihydroxy-2-propyl-1-piperidyl]-6-oxo-hexanoate], with 488 µM; and `CCCCNC(=O)C[C@H]1O[C@@H](n2cnc3c(=O)[nH]c(N)nc32)[C@H](O)[C@@H]1O` [Compound 73, 2-[(2R,3S,4R,5R)-5-(2-Amino-6-oxo-1H-purin-9-yl)-3,4-dihydroxy-tetrahydrofuran-2-yl]-N-butyl-acetamide], with 1920 µM.
Still for that read-out and setting: for `O=C(CCCCCOCc1ccccc1)N1C[C@H](O)[C@H](O)[C@@H](n2cc(COc3ccccc3)nn2)C1` [Compound 131, 6-benzyloxy-1-[(3S,4R,5S)-3,4-dihydroxy-5-[4-(phenoxy-methyl)triazol-1-yl]-1-piperidyl]hexan-1-one] the value was 1770 µM; for `CC(=O)N[C@H]1CN(C(=O)CCCCC(=O)OCc2ccccc2)[C@@H](CO)[C@H](O)[C@@H]1O` [Compound 162, benzyl 6-[(2S,3S,4R,5S)-5-acetamido-3,4-dihydroxy-2-(hydroxymethyl)-1-piperidyl]-6-oxo-hexanoate], 576 µM.
As for `CC(=O)N[C@H]1CN(C(=O)CCC(=O)NCCCNC(=O)CCOCC(COCCC(=O)NCCCNC(=O)CCC(=O)N2C[C@H](NC(C)=O)[C@@H](O)[C@@H](O)C2)(COCCC(=O)NCCCNC(=O)CCC(=O)N2C[C@H](NC(C)=O)[C@@H](O)[C@@H](O)C2)NC(=O)CCCCCCCCCCCOCc2ccccc2)C[C@H](O)[C@@H]1O` [Compound 269, N,N′,N′-((3S,3′S,3″S,4R,4′R,4″R,5S,5′S,5″S)-(15-(12-(benzyloxy)dodecanamido)-4,10,20,26-tetraoxo-15-((3-oxo-3-((3-(4-oxobutanamido)propyl)amino)pro-poxy)methyl)-13,17-dioxa-5,9,21,25-tetraazanonacosanedioyl)tris(4,5-dihydroxypiperidine-1,3-diyl))triacetamide], where the note is “Table M, trimeric compounds”, the IC50 stood at 0.598 µM. In other words, the sub-micromolar range.
Where the note is “Table M, trimeric compounds”, `CC(=O)N[C@H]1CN(C(=O)CCCCC(=O)NCCCNC(=O)CCOCC(COCCC(=O)NCCCNC(=O)CCCCC(=O)N2C[C@H](NC(C)=O)[C@@H](O)[C@@H](O)C2)(COCCC(=O)NCCCNC(=O)CCCCC(=O)N2C[C@H](NC(C)=O)[C@@H](O)[C@@H](O)C2)NC(=O)CCCCCCCCCCCOCc2ccccc2)C[C@H](O)[C@@H]1O` [Compound 267, N,N′,N′-((3S,3′S,3″S,4R,4′R,4″R,5S,5′S,5″S)-(17-(12-(benzyloxy)dodecanamido)-6,12,22,28-tetraoxo-17-((3-oxo-3-((3-(6-oxopentanamido)propyl)amino)propoxy)methyl)-15,19-dioxa-7,11,23,27-tetraazatritriacontanedioyl)tris(4,5-dihydroxypiperidine-1,3-diyl))triacetamide] had an IC50 of 0.563 µM.
In the case of `CC(=O)N[C@H]1CN(C(=O)CCCCCO)C[C@H](O)[C@@H]1O` [Compound 129, N-[(3S,4R,5S)-4,5-dihydroxy-1-(6-hydroxyhexanoyl)-3-piperidyl]acetamide], the concentration for half-maximal inhibition (IC50) (Table K, monomeric compounds) amounted to 585 µM.
